Structures can show the parent of a compound that is named as a salt.
What follows are compounds tested on LPS-induced TNF alpha release in PBMCs (assay: TNF alpha release assay). Settings: Homo sapiens, PBMC, 6 h, 1 μg/mL LPS.
Type: cell-based
Protocol: Freshly isolated peripheral blood mononuclear cells (PBMCs) were seeded in 96-well cell culture plates with 200,000 cells in 100 μl cell culture medium (DMEM cell culture medium+glutamine from PAN Biotech GmbH, Aidenbach, Germany) supplemented with 10% fetal calf serum (PAA Laboratories GmbH, Pasching, Austria) per well and incubated overnight at 37° C., 5% CO2. To each well, 100 μL cell culture medium with 2× concentrated test compounds diluted from 10 mM DMSO stocks, or 100 μL DMEM with 0.4% DMSO for control wells, was added. The compounds of general formula (I) summarized in Table 6 were used in this assay. After incubation for 1 h at 37° C., 5% CO2, cells were stimulated with 1 μg/mL LPS (Lipopolysaccharides, Sigma, catalog #L4391-1MG; 1 mg/ml stock solution), or left untreated for negative controls, and plates were incubated for 6 h at 37° C./5% CO2. The cell culture plates were centrifuged at 2000 rpm for 5 minutes, and supernatants were transferred to fresh 96-well polypropylene plates. 25 µL of supernatants were transferred into 96-well-plates of the human TNF alpha-tissue culture kit (Meso Scale Discovery, Gaithersburg, Md., USA), and manufacturer's instructions were followed for analysis of TNF alpha levels. Chemoluminescence was measured in the Mesoscale Sector Imager, and EC50 values were calculated with the software Excel Fit (IDBS, Guildford, UK) from 2-fold dilution series comprising at least 6 concentrations in duplicates.

Row | SMILES | IC50
1 | COc1cc(F)ccc1-c1ncnc(Nc2cccc(CS(N)(=O)=O)c2)n1 [Compound B2, 3-[(4-(4-Fluoro-2-methoxyphenyl)-1,3,5-triazin-2-yl)amino]benzenemethanesulfonamide] | 1.03 µM
2 | NS(=O)(=O)Cc1cccc(Nc2ncnc(-c3ccccc3OCc3ccccc3)n2)c1 [B13′, 3-[(4-(2-Benzyloxyphenyl)-1,3,5-triazin-2-yl)amino]benzenemethanesulfonamide trifluoroacetic acid salt] | 0.12 µM
3 | COc1ccccc1-c1ncnc(Nc2ccccc2)n1 [Compound P1, 4-(2-Methoxyphenyl)-N-phenyl-1,3,5-triazine-2-amine] | 13.9 µM
4 | COc1cnccc1-c1ncnc(Nc2cccc(CS(N)(=O)=O)c2)n1 [Compound B19, 3-[(4-(3-Methoxypyridin-4-yl)-1,3,5-triazin-2-yl)amino]benzenemethanesulfonamide] | 10.6 µM
5 | COc1ccccc1-c1ncnc(Nc2cccc(CCS(N)(=O)=O)c2)n1 [Compound D1, 2-[3-((4-(2-Methoxyphenyl)-1,3,5-triazin-2-yl)amino)phenyl]ethanesulfonamide] | 5.37 µM
6 | COc1cccc(F)c1-c1ncnc(Nc2cccc(CS(N)(=O)=O)c2)n1 [Compound B4, 3-[(4-(6-Fluoro-2-methoxyphenyl)-1,3,5-triazin-2-yl)amino]benzenemethanesulfonamide] | 6.53 µM
7 | COc1ccc(F)cc1-c1ncnc(Nc2cccc(CS(N)(=O)=O)c2)n1 [Compound B3, 3-[(4-(5-Fluoro-2-methoxyphenyl)-1,3,5-triazin-2-yl)amino]benzenemethanesulfonamide] | 3.24 µM
8 | COc1ccccc1-c1ncnc(Nc2cccc(CS(N)(=O)=O)c2)n1 [B1′, 3-[(4-(2-Methoxyphenyl)-1,3,5-triazin-2-yl)amino]benzenemethanesulfonamide trifluoroacetic acid salt] | 2.71 µM
9 | COc1ccccc1-c1ncnc(Nc2cccc(NS(C)(=O)=O)c2)n1 [Compound K1, N-[3-((4-(2-Methoxyphenyl)-1,3,5-triazin-2-yl)amino)phenyl]-methanesulfonamide] | 4.42 µM
10 | COc1ccccc1-c1ncnc(Nc2cccc([N+](=O)[O-])c2)n1 [Compound H1, 4-(2-Methoxyphenyl)-N-(3-nitrophenyl)-1,3,5-triazine-2-amine] | 2.92 µM
11 | COc1ccccc1-c1ncnc(Nc2cccc(S(N)(=O)=O)c2)n1 [C1′, 3-[(4-(2-Methoxyphenyl)-1,3,5-triazin-2-yl)amino]benzenesulfonamide trifluoroacetic acid salt] | 0.5 µM
12 | CCCS(=O)(=O)Nc1cccc(Nc2ncnc(-c3ccccc3OC)n2)c1 [Compound L1, N-[3-((4-(2-Methoxyphenyl)-1,3,5-triazin-2-yl)amino)phenyl]-propanesulfonamide] | 2.41 µM

The compounds below were run against T1, CDK2/CycE (Homo sapiens, UniProt P24941) (assay: CDK2/CycE kinase assay (TR-FRET)). Settings: ATP 10 μM, values given in μM.
T1 construct: GST; purchased ProQinase GmbH (Freiburg, Germany); host or cells: insect cells (Sf-9)
Type: biochemical
Excerpt: CDK2/CycE-inhibitory activity of compounds of the present invention was quantified employing the CDK2/CycE TR-FRET assay as described in the following paragraphs.
Recombinant fusion proteins of glutathione S-transferase (GST) and human CDK2 and of GST and human CycE, expressed in insect cells (Sf-9) and purified by glutathion-sepharose affinity chromatography, were purchased from ProQinase GmbH (Freiburg, Germany). A biotinylated peptide biotin-Ttds-[…] (C-terminus in amide form), which can be purchased from e.g the company JERINI Peptide Technologies (Berlin, Germany), was used as a substrate for the kinase reaction.
For the assay, 50 nl of a 100-fold concentrated solution of the test compound in DMSO was pipetted into a well of a black low-volume 384-well microtiter plate (Greiner Bio-One, Frickenhausen, Germany), 2 μl of a solution of CDK2/CycE in aqueous assay buffer [50 mM Tris/HCl pH 8.0], 10 mM MgCl2, 1.0 mM dithiothreitol, 0.1 mM sodium ortho-vanadate, 0.01% (v/v) Nonidet-P40 (Sigma)] were added. The mixture was incubated at 22° C. for 15 min to allow pre-binding of the test compounds to the enzyme before the start of the kinase reaction. […] The resulting mixture was incubated at 22° C. for 25 minutes. The concentration of CDK2/CycE was adjusted depending on the activity of the enzyme lot and was chosen appropriately for measurements in the linear range of the assay. Typical concentrations were in the range of 130 ng/ml. The reaction was stopped by the addition of 5 μl of a solution of TR-FRET detection reagents (0.2 μM streptavidine-XL and 1 nM anti-RB(pSer807/pSer811)-antibody from BD Pharmingen [#558389] and 1.2 nM LANCE EU-W1024 labeled anti-mouse IgG antibody [Perkin-Elmer, product no. AD0077]) in an aqueous EDTA-solution (100 mM EDTA, 0.2% (w/v) bovine serum albumin in 100 mM HEPES/NaOH, pH 7.0).
The resulting mixture was incubated at 22° C. for one hour to allow the formation of a complex between the phosphorylated biotinylated peptide and the detection reagents. Subsequently, the amount of phosphorylated substrate was evaluated by measuring the resonance energy transfer from the Eu-chelate to the streptavidine-XL. Therefore, the fluorescence emissions at 620 nm and 665 nm after excitation at 350 nm were measured in a high time-resolved fluorometry (HTRF) reader, e.g. a Rubystar (BMG Labtechnologies, Offenburg, Germany) or a Viewlux (Perkin-Elmer). The ratio of the emissions at 665 nm and at […] was taken as a measure for the amounts of phosphorylated substrate. The data were normalised, i.e. enzyme reaction without inhibitor corresponds to 0% inhibition, and all other assay components in the absence of the enzyme correspond to 100% inhibition. IC50 values were calculated by a 4-parameter fit using in-house software.

Row | SMILES | IC50
13 | COc1ccccc1-c1cc(Nc2cccc(CS(=O)(=O)N(C)C)c2)ncn1 [Ref4, C-{3-[6-(2-Methoxy-phenyl)-pyrimidin-4-ylamino]-phenyl}-N,N-dimethylmethanesulfonamide, reference compound] | 2.7 µM
14 | NS(=O)(=O)Cc1cccc(Nc2ncnc(-c3ccccc3Oc3ccccc3)n2)c1 [Compound B14, 1-(3-{[4-(2-phenoxyphenyl)-1,3,5-triazin-2-yl]amino}phenyl)methanesulfonamide] | 4 µM
15 | COc1ccccc1-c1ncnc(Nc2cccc(CS(N)(=O)=O)c2)n1 [Compound B1, 3-[(4-(2-Methoxyphenyl)-1,3,5-triazin-2-yl)amino]benzenemethanesulfonamide] | 1.8 µM
16 | CNS(=O)(=O)Cc1cccc(Nc2cc(-c3ccccc3OC)ncn2)c1 [Ref2, C-{3-[6-(2-Methoxy-phenyl)-pyrimidin-4-ylamino]-phenyl}-N-methyl methanesulfonamide, reference compound] | 1.6 µM
17 | N#Cc1cc(F)ccc1-c1ncnc(Nc2cccc(CS(N)(=O)=O)c2)n1 [Compound U3, 1-(3-{[4-(2-cyano-4-fluorophenyl)-1,3,5-triazin-2-yl]amino}phenyl)methanesulfonamide] | 14 µM

Same assay, conditions: ATP 10 μM, values in nM

Row | SMILES | IC50
18 | COc1cc(F)ccc1-c1ncnc(Nc2cccc(CS(N)(=O)=O)c2)n1 [Compound B2, 3-[(4-(4-Fluoro-2-methoxyphenyl)-1,3,5-triazin-2-yl)amino]benzenemethanesulfonamide] | 0.93 µM
19 | COc1cc(F)ccc1-c1ncnc(Nc2ccc(S(C)(=O)=O)nc2)n1 [Compound U8, 4-(4-fluoro-2-methoxyphenyl)-N-[6-(methylsulfonyl)pyridin-3-yl]-1,3,5-triazin-2-amine] | 0.17 µM
20 | CC(C)Oc1cc(F)ccc1-c1ncnc(Nc2cccc(CS(N)(=O)=O)c2)n1 [Compound U2, 1-[3-({4-[4-fluoro-2-(propan-2-yloxy)phenyl]-1,3,5-triazin-2-yl}amino)phenyl]methanesulfonamide] | 0.88 µM
21 | COc1cc(F)ccc1-c1ncnc(Nc2cccc(CS(N)(=O)=O)c2)n1 [B2′, 1-(3-{[4-(4-fluoro-2-methoxyphenyl)-1,3,5-triazin-2-yl]amino}phenyl)methanesulfonamide hydrochloride] | 0.67 µM
22 | COc1cc(F)c(F)cc1-c1ncnc(Nc2cccc(CS(N)(=O)=O)c2)n1 [Compound U7, 1-(3-{[4-(4,5-difluoro-2-methoxyphenyl)-1,3,5-triazin-2-yl]amino}phenyl)methanesulfonamide] | 0.93 µM
23 | NS(=O)(=O)Cc1cccc(Nc2ncnc(-c3ccccc3OCc3ccccc3)n2)c1 [Compound B13, 3-[(4-(2-Benzyloxyphenyl)-1,3,5-triazin-2-yl)amino]benzenemethanesulfonamide] | 0.38 µM

— US20130079345A1, “[…] ACTIVE DISUBSTITUTED TRIAZINE DERIVATIVES” (BAYER INTELLECTUAL PROPERTY GMBH, priority 2010, published 2013)
